{"source": "patent US20120064056A1", "about": "“DICHLORACETATE IN COMBINATION WITH CLINICALLY HIGH LEVELS OF CARDIOPROTECTIVE OR HEMODYNAMIC DRUGS” (THE GOVERNORS OF THE UNIVERSITY OF ALBERTA TEC Edmonton, priority 2002, published 2012)", "key": {"[1]": {"tested_on": "isolated rat hearts", "assay": "Isolated working rat heart, aerobic perfusion: glycolysis and glucose oxidation", "design": "glycolytic rates (glycolysis) / glucose oxidation rates: unit not given here", "details": "normal hearts, aerobic, DCA 2 mM, digoxin 3 nM, diltiazem 0.8 μM, dobutamine 1 μM, metoprolol 1 μM", "outline": "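Hearts from male Sprague-Dawley rats perfused in working mode at 37 °C (preload 11, afterload 80 mm Hg) with Krebs-Henseleit containing 5.5 mmol/L glucose, 1.2 mmol/L palmitate and 3% BSA. Compounds added 5 min into working mode. Glycolysis (^3H2O) and glucose oxidation (^14CO2) from [5-^3H/U-^14C]glucose measured every 10 min over 60 min aerobic perfusion.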"}, "[2]": {"tested_on": "isolated rat hearts subjected to low flow demand ischemia", "assay": "Isolated working rat heart, low flow demand ischemia: cardiac function and efficiency", "details": "for Aortic Outflow / Cardiac Output / Coronary Flow / HR × PSP / Heart Rate / Peak Systolic Pressure: DCA 2 mM, diltiazem 0.8 μM, metoprolol 1 μM", "protocol": "Hearts were trimmed of excess tissue, and the pulmonary artery and the opening to the left atrium were then cannulated. After 15 min of Langendorff perfusion, hearts were switched to the working mode by clamping the aortic inflow line from the Langendorff reservoir and opening the left atrial inflow line. The perfusate was delivered from an oxygenator into the left atrium at a constant preload pressure of 11 mm Hg. […] The afterload was set at a hydrostatic pressure of 80 mm Hg. […] Palmitate was bound to the albumin as described previously ([…]., et al. J Biol. Chem. 267:3825-3831 (1992)). […] For the aerobic model hearts, all tested compounds were introduced into the heart 5 minutes into the working mode following Langendorff Perfusion. Spontaneously beating hearts were used in all perfusions. Heart rate and aortic pressure were measured with a Biopac Systems Inc. blood pressure transducer connected to the aortic outflow line. Cardiac output and aortic flow were measured with Transonic […] ultrasonic flow probes in the preload and afterload lines, respectively. Coronary flow was calculated as the difference between cardiac output and aortic flow. […] Cardiac work was calculated as the product of systolic pressure and cardiac output. Cardiac efficiency was defined as a ratio of cardiac work to MVO2. […] All tested compounds were introduced into the perfusate five minutes into initiation of aerobic perfusion."}, "[3]": {"details": "low flow ischemia: aerobic period"}, "[4]": {"details": "low flow ischemia: ischemic period"}}, "data": [{"smiles": "COCCc1ccc(OCC(O)CNC(C)C)cc1", "note": "(centres unmarked) [Metoprolol, metoprolol]", "values": [{"measurement": "glucose oxidation rates", "setting": "[1]; FIG. 1, 3, 5, 7, control 361±43", "result": "651±222"}, {"measurement": "glycolytic rates (glycolysis)", "setting": "[1]; FIG. 2, 4, 6, 8, control 3.430±0.604", "result": "4.530±0.876"}, {"measurement": "cardiac work, in words", "setting": "[2]; low flow demand ischemia, FIG. 24, FIG. 30", "result": "no significant changes"}, {"measurement": "oxygen consumption, in words", "setting": "[2]; low flow demand ischemia, FIG. 25, FIG. 31", "result": "no significant changes"}, {"measurement": "peak systolic pressure, effect in words", "setting": "[2]; low flow demand ischemia, Table 1", "result": "no significant increase"}, {"measurement": "heart rate, effect in words", "setting": "[2]; low flow demand ischemia, Table 1, compared to control", "result": "no significant increase"}, {"measurement": "coronary flow (coronary outflow), effect in words", "setting": "[2]; low flow demand ischemia, Table 2", "result": "no significant increase"}, {"measurement": "Aortic Outflow", "setting": "[2]; [3]", "result": "25 ± 2", "unit": "mL/min"}, {"measurement": "Cardiac Output", "setting": "[2]; [3]", "result": "47 ± 2", "unit": "mL/min"}, {"measurement": "Coronary Flow", "setting": "[2]; [3]", "result": "22 ± 1", "unit": "mL/min"}, {"measurement": "HR × PSP", "setting": "[2]; [3]", "result": "30 ± 2 beats · min^−1 · mmHg · 10^−2"}, {"measurement": "Heart Rate", "setting": "[2]; [3]", "result": "216 ± 10", "unit": "beats · min^−1"}, {"measurement": "Peak Systolic Pressure", "setting": "[2]; [3]", "result": "141 ± 7", "unit": "mmHg"}, {"measurement": "Aortic Outflow", "setting": "[2]; [4]", "result": "17 ± 3", "unit": "mL/min"}, {"measurement": "Cardiac Output", "setting": "[2]; [4]", "result": "31 ± 4", "unit": "mL/min"}, {"measurement": "Coronary Flow", "setting": "[2]; [4]", "result": "14 ± 1", "unit": "mL/min"}, {"measurement": "HR × PSP", "setting": "[2]; [4]", "result": "30 ± 2 beats · min^−1 · mmHg · 10^−2"}, {"measurement": "Heart Rate", "setting": "[2]; [4]", "result": "216 ± 10", "unit": "beats · min^−1"}, {"measurement": "Peak Systolic Pressure", "setting": "[2]; [4]", "result": "141 ± 7", "unit": "mmHg"}, {"measurement": "cardiac function, in words", "setting": "[2]; low-flow ischemic period, FIG. 23, FIG. 29", "result": "no significant changes"}]}]}
